What is called Kd is a measure of binding affinity in units of concentration.

Series [1] in a line: refolding of ubiquitin from the A state, kinetic mode ESI-MS. The procedure:
(§1) For demetalation experiments, syringe 1 contained 40 μM chlorophyll in methanol and syringe 2 contained HCl in methanol at concentrations ranging from 30 to 100 mM. Both syringes were advanced at 30 μL/min for a total flow rate 60 μL/min in the reaction capillary. Ubiquitin refolding studies were carried out by having syringe 1 filled with 20 μM protein in 46% water, 50% methanol, and 4% acetic acid. Syringe 2 contained water. The two syringes were advanced at 20 and 50 μL/min, respectively, for a total flow rate of 70 μL/min. Final solution conditions after mixing ere 14.3% methanol and 1.1% acetic acid.
The A state was populated by exposing the protein to 50% methanol and 4% acetic acid; refolding was initiated by mixing with an excess volume of water. ESI mass spectra of ubiquitin for different times after initiation of refolding are depicted in FIG. 7. […] This spectrum is practically indistinguishable from that of the protein prior to initiation of refolding (data not shown) and very similar to ubiquitin A state spectra that have been published previously.^14, 51 As refolding proceeds, the relative abundance of highly charged protein ions decreases and that of the […] and 7+ ions increases (FIGS. 7B,C). The final spectrum was recorded off-line 5 min after initiation of refolding in a manual mixing experiment.
The diffusion coefficient of ubiquitin can be estimated to be around D=1×10^−10 m^2/s.^52 According to condition 7, this implies that diffusion effects on the observed kinetics are negligible in an experimental time window up to τ≈2 s. The data can therefore be fitted based on eq 5 (solid lines in FIG. 8). C(τ) expressions for the 13+ and 12+ions were generated by assuming the model function C(t)=a1 exp(−kobst)+a0, whereas the analysis of the 8+ and 7+ ions was based on C(t)=b1(1−exp(−kobst))+b0. […] Instead, the kinetic profiles level off at ˜20% of their initial values. This effect can be attributed to a subpopulation of slow-folding ubiquitin molecules that contain non-native cis-proline isomers.^53 Proline isomerization, taking place on the order of tens of seconds, 54 is the rate-limiting step for the refolding of this subpopulation. […] Processes occurring on such a slow time scale are beyond the range accessible by our rapid mixing setup.

Series [2] can be described thus: demetalation of chlorophyll a in acidic methanol, optical stopped-flow spectroscopy. It counts as physicochemical. Conditions: 664 nm, quadratic fit. The procedure: (§2) Optical Stopped-Flow Measurements. These measurements were performed on an SFM-4 instrument (Bio-Logic, Claix, France), using an observation wavelength of 664 nm for monitoring the demetalation of chlorophyll. The two stepper motor-driven syringes used were advanced at 3.5 mL/s each, for an instrument dead time of 3.3 ms. All experiments were carried out at room temperature (22±1° C.).
Instrument Performance in Kinetic Mode. The demetalation of chlorophyll a in acidic solution is a well-characterized process, during which the central magnesium of the porphyrin is displaced by two protons.^40-42 This reaction represents a convenient test system, because it allows kinetic measurements by ESI-MS and by standard optical stopped-flow absorption spectroscopy. When studied under pseudo-first-order conditions, the rate constant of the reaction is given by kobs=k[H^+]^2. The intrinsic rate constant k in this expression is known to be strongly solvent-dependent.^41, 42

The nature of series [3]: demetalation of chlorophyll a in acidic methanol, kinetic mode ESI-MS. Type of series: physicochemical. The conditions noted are these: HCl, quadratic fit. The protocol: as §1
On-Line Kinetic ESI-MS Measurements. These measurements were carried out using a custom-built continuous-flow mixing apparatus that is based on two concentric capillaries (FIG. 1).
Instrument Performance in Kinetic Mode. […]
The apparatus depicted in FIG. 1 was used for monitoring the kinetics of chlorophyll demetalation in methanol solution for acid concentrations ranging from 15 to 50 mM. […] Nevertheless, it is clear that the temporal resolution of our novel mixing device exceeds that of other on-line ESI-MS techniques, which so far allowed rate constants up to ˜25 s^−1 to be measured.^16

Series [4] has as its target T1, chymotrypsin (a mixture of the α form and δ′ forms) (Bos taurus, UniProt P00766).
T1 construct: Chymotrypsin (a mixture of the α form and δ′ forms); purchased Sigma (St. Louis, Mo.)
Nature of the series: p-NPA hydrolysis by optical stopped-flow spectroscopy (release of p-NP). The conditions noted are these: weighted average of α and δ′-chymotrypsin. It counts as biochemical. The procedure:
as §2
Enzymatic reactions. The limited solubility of p-NPA in purely aqueous solutions necessitated the use of 20% (v/v) methanol in the reaction mixture. […] These solutions were mixed in a 1:1 ratio with 32 μM chymotrypsin in water for a final pH of 7.8, which corresponds to the pH optimum of the enzyme. […] Experiments on bradykinin were carried out in an analogous manner, but in purely aqueous solution, and by using 20% (v/v) acetic acid in water as makeup solvent. […] Substrate concentrations given below represent the values in the reaction mixture, i.e., after the first mixing step. […]
Measurements of kobs as a function of substrate concentration were also carried out by stopped-flow spectroscopy, using the release of the yellow p-NP moiety as optical probe. In contrast to the ESI-MS experiments, these optical studies cannot discern the two forms of the enzyme, and therefore the measured data represent a weighted average of the substrate conversion caused by a and δ′-chymotrypsin. […]

The next series addresses T2, chymotrypsin (Bos taurus, UniProt P00766).
T2 construct: Chymotrypsin (a mixture of the α form and δ′ forms); purchased Sigma (St. Louis, Mo.)
Conditions: previously reported, cited from earlier work.

Another series has as its target T3, δ′-chymotrypsin (Bos taurus, UniProt P00766).
T3 construct: Peaks labeled with α and δ′ correspond to α- and δ′-chymotrypsin, respectively; purchased Sigma (St. Louis, Mo.)
Nature of the series: pre-steady-state hydrolysis of p-NPA by chymotrypsin, on-line kinetic ESI-MS. The conditions noted are these: fit of kobs to Equation 12, pH 7.8, 20% methanol, 22 °C. It counts as biochemical. The text has this:
(§3) Chymotrypsin is a member of the serine protease family. ^86-88 Ser195 represents the reactive nucleophile in the active site of this enzyme. Although the physiological role of chymotrypsin is to serve as an endopeptidase, it also catalyzes the hydrolysis of esters, including numerous synthetic substrate analogs. […] Subsequently, Ser195 forms a covalent bond with the carbonyl carbon of the substrate, thus releasing the first hydrolysis product P1. The rate constant of this acylation step is denoted as k2. The subsequent de-acylation has a rate constant of k3, and it leads to regeneration of the free enzyme by hydrolysis of the Ser195-ester bond, through release of the second hydrolysis product P2. For conditions where S is present in large excess, it can be shown that the concentration of P1 as a function of time t in the pre-steady-state regime is given by Equation 9^58, 59: [P1](t)=C1(1−exp(−kobst))+C2t (9) and the concentration-time profile of the covalent EP2 complex can be expressed as Equation 10: [EP2](t)=C3(1−exp(−kobst)) (10). Consequently, the sum of the concentrations of free enzyme and ES complex are given by Equation 11: ([Efree]+[ES](t)=C4exp(−kobst)+C5 (11). C1, . . . , C5 in these expressions are constants, and kobs is given by Equation 12: [formula] where [S] is the substrate concentration. Measurements of kobs as a function of substrate concentration allow the determination of the parameters k2, k3, and Kd in Scheme 8.
(§4) On-line kinetic ESI-MS experiments. ESI-MS-based kinetic experiments were carried out on a custom built continuous flow mixing apparatus described in FIG. 2. Briefly, this setup consists of two concentric capillaries, that are connected to sample injection syringes. Reactions are initiated by mixing of two solutions at the outlet of the inner capillary. The reaction time is determined by the solution flow rate, and by the distance between the mixing region and the end of the outer capillary. For experiments in kinetic mode, the inner capillary is steadily withdrawn from the end of the outer capillary, while the mass spectrometer is set to monitor selected m/z values, corresponding to specific solution-phase species, as a function of time. In spectral mode, the inner capillary is set at specific distances from the end of the outer capillary, such that entire mass spectra can be obtained for selected reaction times.
(§5) For the experiments described here, both reactant solutions were introduced into the apparatus at 20 μL/min using syringe pumps (Harvard Apparatus, Saint Laurent, QC) for a total flow rate of 40 μL/min after the mixer. […]

For a further series, the target named is T4, α-chymotrypsin (Bos taurus, UniProt P00766).
T4 construct: Peaks labeled with α and δ′ correspond to α- and δ′-chymotrypsin, respectively; purchased Sigma (St. Louis, Mo.)
The series is described as above. Type of series: biochemical. Conditions: fit of kobs to Equation 12, pH 7.8, 20% methanol, 22 °C.
Source text: as §3, §4, §5

The mark [5] stands for this setting: much higher buffer concentrations.
Where [6] appears, read: read-out: dissociation constant Kd.

Regarding ubiquitin, the refolding kobs in series [1] (8+ ion, 14.3% methanol, 1.1% acetic acid) was determined as 5.3 s⁻¹; in series [1] (9+ ion), 5.3 s⁻¹; in series [1] (12+ ion), 5.2 s⁻¹; in series [1] (13+ ion), 5.1 s⁻¹. The “refolding kobs, average value” in series [1] (average of the four fits) turned out to be 5.2 s⁻¹.
As to `C=Cc1c(C)c2cc3nc(c4c5[n-]c(cc6nc(cc1[n-]2)C(C)=C6CC)c(C)c5C(=O)[C@@H]4C(=O)OC)[C@@H](CCC(=O)OC/C=C(\C)CCC[C@H](C)CCC[C@H](C)CCCC(C)C)[C@@H]3C.[Mg+2]` [chlorophyll a, Chlorophyll a], the “intrinsic rate constant k of demetalation” value in series [2] is given as 0.050±0.001 mM^−2 s^−1. For the same molecule, in series [3], the “intrinsic rate constant k of demetalation (kobs=k[H+]^2)” value was 0.048±0.002 mM^−2s^−1.
`CC(=O)Oc1ccc([N+](=O)[O-])cc1` [p-NPA, para-nitrophenyl acetate]: the dissociation constant Kd in series [4] was 1.6 ± 0.1 mM; at chymotrypsin (setting [5]) it was 7 mM; on δ′-chymotrypsin (setting [6]) it was 1.7 ± 0.2 mM; at α-chymotrypsin (setting [6]) it was 1.4 ± 0.2 mM. Besides, the k2 is 3.6 ± 0.2 s⁻¹ in series [4] and 3 s⁻¹ at chymotrypsin (setting [5]). Besides, at chymotrypsin, the k3 is 0.03 s⁻¹. In addition, the “k2 (acylation rate constant)” value on δ′-chymotrypsin is 3.7 ± 0.3 s⁻¹; at α-chymotrypsin, 3.2 ± 0.3 s⁻¹.

Values taken from patent publication US6870154B1, “Capillary mixer with adjustable reaction chamber volume for mass spectrometry” (The University of Western Ontario, priority 2004, dated 2005).
